Where a SMILES comes first, the peptide text is derived from it. [ ]: non-standard residue; d: D form. The star is where a group is joined. Octanoyl = CCCCCCCC(=O)*; Orn = NCCC[C@H](N)C(=O)O; Hexanoyl = CCCCCC(=O)*
Experiments:
Type in all cases: cell-based
[1] = tested on: P. aeruginosa strain ATCC 27853; conditions: ATCC 27853
Description: (§1) Table I, which follows, indicates the Minimal Inhibitory Concentration (MIC) in […] of various peptides against S.aureus strain ATCC 25923(S), P. aeruginosa strain ATCC 27853(P), E. coli ATCC strain 25922(E), and C. 4albicans (CA). […] The peptides are unsubstituted at the N-terminal; substituted with an acetyl group at the N-terminal, as indicated by Ac-; substituted with an octanoyl group at the N-terminal, as indicated by Oct-; substituted with spinogosine, as indicated by Sph-; substituted with a succinyl group, as indicated by Suc-; substituted with a hexanoyl group, as indicated by Hex-; substituted with a heptanoyl group, as indicated by Hep-; substituted with a valeryl group, as indicated by Val-; substituted with a myristryl group, as indicated by Myr-; or substituted with an ibuprofyl group, as indicated by Ibu-;
(§2) The procedure for the anti-bacterial assay is based upon the guidelines of the National Committee for Clinical Laboratory Standards, Document M7-T2, Volume 8, No. 8, 1988, which document is entirely incorporated herein by reference.
(§3) Stock solutions of peptides, with and without the appropriate substitutions, were prepared at a concentration of 512 μg/ml in sterile deionized distilled water and stored at −70° C.
(§4) The stock peptide solution was diluted in serial dilutions (1:2) down the wells of a microtiter plate so that the final concentrations of peptides in the wells were 0.25, 0.50, 1, 2, 4, 8, 16, 32, 64, 128 and 256 μg/ml. 1-5×10^5 CFUs/ml of either S. aureus ATCC 25923, E. coli ATCC 25922, P. aeruginosa ATCC 27853, or C. albicans, were added to the wells in full strength Mueller Hinton broth (BBL 11443) from a mid-log culture. The inoculum was standardized spectrophotometrically at 600 nm and was verified by colony counts. The plates were incubated for 16-20 hours at 37° C., and the minimal inhibitory concentration (MIC) for each peptide was determined. Minimal inhibitory concentration is defined as the lowest concentration of peptide which produces a clear well in the microtiter plate. The minimal inhibitory concentration of each of the peptides with and/or without the appropriate substitutions is given in Table I below.
(§5) The in vitro anti-microbial activities of the methane sulfonate derivatives were determined according to the methods described in Examples 1 and 2. The activities against ATCC strains of S. aureus, E. coli, P. aeruginosa, and C. albicans, and the hemolysis of red blood cells were compared to the parent compound (Table IV). The activities for Compound 843 (Oct-SEQ ID NO:143) methane sulfonate against clinical strains of P. aeruginosa isolated from cystic fibrosis patients were compared to the parent compound (Table V). The activity for Compound 469 (Oct-SEQ ID NO:27) methane sulfonate against P. gingivalis was compared to the parent compound (Table VI).

C. albicans = tested on: C. albicans
Description: as §1, §2, §3, §4

[2] = tested on: E. coli ATCC strain 25922; assay: Minimal Inhibitory Concentration, microtiter broth dilution; conditions: ATCC strain 25922
Description: as §1, §2, §3, §4, §5

| Molecule | Minimal Inhibitory Concentration P [1] | Minimal Inhibitory Concentration CA (C. albicans) | Minimal Inhibitory Concentration E [2] |
| --- | --- | --- | --- |
| CCCCCCCC(=O)N[C@@H](C)C(=O)N[C@@H](CCCCN)C(=O)N[C@@H](CCCCN)C(=O)N[C@@H](CC(C)C)C(=O)N[C@@H](CC(C)C)C(=O)N[C@@H](CCCCN)C(=O)N[C@@H](CCCCN)C(=O)N[C@@H](CC(C)C)C(=O)N[C@@H](CCCCN)C(=O)N[C@@H](CCCCN)C(=O)N[C@@H](CC(C)C)C(N)=O [Oct-(SEQ ID NO: 111)-NH2] (Octanoyl-AKKLLKKLKKL-NH2) | 8 µg/mL | 32 µg/mL | 32 µg/mL |
| CCCCCCCC(=O)N[C@@H](CCCCN)C(=O)N[C@@H](CCCCN)C(=O)N[C@@H](CCCCN)C(=O)N[C@@H](CC(C)C)C(=O)N[C@@H](CC(C)C)C(=O)N[C@@H](CCCCN)C(=O)N[C@@H](CCCCN)C(=O)N[C@@H](CC(C)C)C(=O)N[C@@H](CCCCN)C(=O)N[C@@H](CCCCN)C(=O)N[C@@H](CC(C)C)C(N)=O [Oct-(SEQ ID NO: 128)-NH2] (Octanoyl-KKKLLKKLKKL-NH2) | 64 µg/mL | 32 µg/mL | 32 µg/mL |
| CCCCCCCC(=O)N[C@@H](CC(C)C)C(=O)N[C@@H](CCCN)C(=O)N[C@@H](CCCCN)C(=O)N[C@@H](CC(C)C)C(=O)N[C@@H](CC(C)C)C(=O)N[C@@H](CCCCN)C(=O)N[C@@H](CCCCN)C(=O)N[C@@H](CC(C)C)C(=O)N[C@@H](CCCCN)C(=O)N[C@@H](CCCCN)C(=O)N[C@@H](CC(C)C)C(N)=O [Oct-(SEQ ID NO: 141)-NH2] (Octanoyl-L[Orn]KLLKKLKKL-NH2) | 4 µg/mL | 32 µg/mL | 8 µg/mL |
| CCCCCCCC(=O)N[C@@H](CCC(=O)O)C(=O)N[C@@H](CCCCN)C(=O)N[C@@H](CCCCN)C(=O)N[C@@H](CC(C)C)C(=O)N[C@@H](CC(C)C)C(=O)N[C@@H](CCCCN)C(=O)N[C@@H](CCCCN)C(=O)N[C@@H](CC(C)C)C(=O)N[C@@H](CCCCN)C(=O)N[C@@H](CCCCN)C(=O)N[C@@H](CC(C)C)C(N)=O [Oct-(SEQ ID NO: 127)-NH2] (Octanoyl-EKKLLKKLKKL-NH2) | 32 µg/mL | 128 µg/mL | 32 µg/mL |
| CCCCCCCC(=O)NCC(=O)N[C@H](C(=O)N[C@@H](CCCCN)C(=O)N[C@@H](CCCCN)C(=O)N[C@@H](Cc1ccccc1)C(=O)N[C@@H](CC(C)C)C(=O)N[C@@H](CCCCN)C(=O)N[C@@H](CCCCN)C(=O)N[C@@H](C)C(=O)NCC(=O)N[C@@H](CCCCN)C(=O)N[C@@H](Cc1ccccc1)C(=O)NCC(=O)N[C@@H](CCCCN)C(=O)N[C@@H](C)C(=O)N[C@@H](Cc1ccccc1)C(N)=O)[C@@H](C)CC [Oct-(SEQ ID NO: 149)-NH2] (Octanoyl-GIKKFLKKAGKFGKAF-NH2) | 16 µg/mL | 126 µg/mL | 32 µg/mL |
| H-GIKKFLKKAGKFGKAF-NH2 [(SEQ ID NO: 149)-NH2] | 32 µg/mL | 64 µg/mL | 32 µg/mL |
| CCCCCCCC(=O)N[C@@H](CC(C)C)C(=O)N[C@@H](CCCCN)C(=O)N[C@@H](CCCCN)C(=O)N[C@@H](CC(C)C)C(=O)N[C@@H](CC(C)C)C(=O)N[C@@H](CCCCN)C(=O)N[C@@H](CCCCN)C(N)=O [Oct-(SEQ ID NO: 137)-NH2] (Octanoyl-LKKLLKK-NH2) | 256 µg/mL | 256 µg/mL | >256 µg/mL |
| CCCCCCCC(=O)N[C@H](C(=O)N[C@@H](CCCCN)C(=O)N[C@@H](CCCCN)C(=O)N[C@@H](CC(C)C)C(=O)N[C@@H](CC(C)C)C(=O)N[C@@H](CCCCN)C(=O)N[C@@H](CCCCN)C(=O)N[C@@H](CC(C)C)C(=O)N[C@@H](CCCCN)C(=O)N[C@@H](CCCCN)C(=O)N[C@@H](CC(C)C)C(N)=O)C(C)C [Oct-(SEQ ID NO: 146)-NH2] (Octanoyl-VKKLLKKLKKL-NH2) | 4 µg/mL | 32 µg/mL | 16 µg/mL |
| CCCCCCCC(=O)N[C@@H](CCCCN)C(=O)N[C@@H](CCCCN)C(=O)N[C@@H](Cc1ccccc1)C(=O)NCC(=O)N[C@@H](CCCCN)C(=O)N[C@@H](CCCCN)C(=O)N[C@@H](Cc1ccccc1)C(=O)N[C@H](C(=O)N[C@@H](CCCCN)C(=O)N[C@H](C(=O)N[C@@H](CC(C)C)C(=O)N[C@@H](CCCCN)C(=O)N[C@@H](CCCCN)C(N)=O)[C@@H](C)CC)C(C)C [Oct-(SEQ ID NO: 135)-NH2] (Octanoyl-KKFGKKFVKILKK-NH2) | 8 µg/mL | 64 µg/mL | 64 µg/mL |
| CCCCCCCC(=O)N[C@@H](CCCNC(=N)N)C(=O)N[C@@H](Cc1ccccc1)C(=O)N[C@@H](C)C(=O)N[C@@H](CCCNC(=N)N)C(=O)N[C@@H](CCCNC(=N)N)C(=O)N[C@@H](Cc1ccccc1)C(=O)N[C@@H](C)C(=O)N[C@@H](CCCNC(=N)N)C(=O)N[C@@H](Cc1ccccc1)C(=O)N[C@@H](C)C(=O)N[C@@H](CCCNC(=N)N)C(=O)N[C@@H](CCCNC(=N)N)C(=O)N[C@@H](Cc1ccccc1)C(=O)N[C@@H](C)C(N)=O [Oct-(SEQ ID NO: 126)-NH2] (Octanoyl-RFARRFARFARRFA-NH2) | 8 µg/mL | 64 µg/mL | 8 µg/mL |
| CCCCCCCC(=O)N[C@@H](CC(C)C)C(=O)N[C@@H](CCCCN)C(=O)N[C@@H](CCCCN)C(=O)N[C@@H](CC(C)C)C(=O)N[C@@H](CC(C)C)C(=O)N[C@@H](CCCCN)C(=O)N[C@@H](CCCCN)C(=O)N[C@@H](CC(C)C)C(=O)N[C@@H](CCCCN)C(=O)N[C@@H](CCCCN)C(=O)N[C@@H](CC(C)C)C(=O)N[C@@H](CS)C(N)=O [Oct-(SEQ ID NO: 133)-NH2] (Octanoyl-LKKLLKKLKKLC-NH2) | 32 µg/mL | 128 µg/mL | 32 µg/mL |
| CCCCCCCC(=O)N[C@@H](CCCNC(=N)N)C(=O)N[C@@H](CC(C)C)C(=O)N[C@@H](CC(C)C)C(=O)N[C@@H](CCCNC(=N)N)C(=O)N[C@@H](CCCNC(=N)N)C(=O)N[C@@H](CC(C)C)C(=O)N[C@@H](CCCNC(=N)N)C(=O)N[C@@H](CCCNC(=N)N)C(=O)N[C@@H](CC(C)C)C(N)=O [Oct-(SEQ ID NO: 145)-NH2] (Octanoyl-RLLRRLRRL-NH2) | 8 µg/mL | 64 µg/mL | 16 µg/mL |
| CCCCCC(=O)N[C@@H](CC(C)C)C(=O)N[C@@H](CCCCN)C(=O)N[C@@H](CCCCN)C(=O)N[C@@H](CC(C)C)C(=O)N[C@@H](CC(C)C)C(=O)N[C@@H](CCCCN)C(=O)N[C@@H](CCCCN)C(=O)N[C@@H](CC(C)C)C(=O)N[C@@H](CCCCN)C(=O)N[C@@H](CCCCN)C(=O)N[C@@H](CC(C)C)C(N)=O [Hex-(SEQ ID NO: 110)-NH2] (Hexanoyl-LKKLLKKLKKL-NH2) | 8 µg/mL | 64 µg/mL | 16 µg/mL |
| CCCCCCCC(=O)N[C@@H](CCCCN)C(=O)N[C@@H](CCCCN)C(=O)N[C@@H](CC(C)C)C(=O)N[C@@H](CC(C)C)C(=O)N[C@@H](CCCCN)C(=O)N[C@@H](CCCCN)C(=O)N[C@@H](CC(C)C)C(=O)N[C@@H](CCCCN)C(=O)N[C@@H](CCCCN)C(=O)N[C@@H](CC(C)C)C(N)=O [Oct-(SEQ ID NO: 109)-NH2] (Octanoyl-KKLLKKLKKL-NH2) | 4 µg/mL | 32 µg/mL | 16 µg/mL |
| CCCCCCCC(=O)N[C@@H](CCCCN)C(=O)N[C@@H](CC(C)C)C(=O)N[C@@H](CCCCN)C(=O)N[C@@H](CCCCN)C(=O)N[C@@H](CC(C)C)C(=O)N[C@@H](CCCCN)C(=O)N[C@@H](CCCCN)C(=O)N[C@@H](CC(C)C)C(=O)N[C@@H](Cc1ccccc1)C(=O)N[C@@H](CCCCN)C(N)=O [Oct-(SEQ ID NO: 148)-NH2] (Octanoyl-KLKKLKKLFK-NH2) | 8 µg/mL | 128 µg/mL | 32 µg/mL |
